Measured values: patent EP0932387B1 (UNILEVER PLC, priority 1996, dated 1998)
Like-named read-outs stand apart in the source and are kept apart here.

What was measured:
[1] = molecular target: T1, lecithin retinol acyl transferase (LRAT) (Bos taurus, UniProt Q9BGL2); test: In vitro Microsomal Assay, LRAT catalyzed retinol esterification (retinyl laurate formation); format: biochemical, bovine
T1 construct: a microsomal fraction isolated from bovine retinal pigment epithelial cells; from tissue; host or cells: bovine retinal pigment epithelium, microsomal fraction
T1 sequence (Q9BGL2 1-230): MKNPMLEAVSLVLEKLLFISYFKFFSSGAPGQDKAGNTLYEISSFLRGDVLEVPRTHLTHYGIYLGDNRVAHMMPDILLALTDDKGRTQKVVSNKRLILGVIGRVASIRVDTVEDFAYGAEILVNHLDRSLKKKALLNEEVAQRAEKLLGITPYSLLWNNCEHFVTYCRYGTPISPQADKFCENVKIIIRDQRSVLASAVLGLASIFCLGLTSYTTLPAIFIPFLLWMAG
Method: (§2) A solution containing 0.1M sodium phosphate pH 7 buffer, 5mM dithiothreitol, 2 mg/ml bovine serum albumin, 40 micromolar palmitoyl CoA, 40 micromolar dilauroyl phosphatidyl choline, 10 micromolar retinol and a test compound or a solvent blank, is incubated for 1 hour at 37°C with a microsomal fraction isolated from bovine retinal pigment epithelial cells. After incubation, the reaction is quenched by addition of an equal volume of ethanol, and the retinyl esters formed (retinyl laurate from the LRAT catalyzed reaction and retinyl palmitate from ARAT catalyzed reaction) are extracted with hexane.
(§3) A solution containing 0.1M sodium phosphate pH 7 buffer, 5mM dithiothreitol, 2 mg/ml bovine serum albumin, 40 micromolar palmitoyl CoA, 40 micromolar dilauroyl phosphatidyl choline, 10 micromolar retinol and a test compound or solvent blank, was incubated for 1 hour at 37°C with a microsomal fraction isolated from bovine retinal pigment epithelial cells. After incubation, the reaction was quenched by addition of an equal volume of ethanol, and the retinyl esters formed (retinyl palmitate from the ARAT catalyzed reaction, and retinyl laurate from the LRAT catalyzed reaction) were extracted with hexane.

[2] = test system: Human keratinocytes; test: Transglutaminase Assay (TGase I ELISA, procedure for other Examples), normalized to DNA; keratinocyte differentiation; format: cell-based; details: for TGase/ DNA (% control) / mean TGase/ DNA x10^5 ± s.d: 72 hour treatment; for mean TGase/ DNA x10^5 ± s.d: n = 3; for % Control: transglutaminase normalized to DNA; for activity at 1 µM: 1 micromolar, read-out: % of Control
Method: (§1) Human keratinocytes, isolated from neonatal foreskin by trypsin treatment were grown in Dulbecco Modification Eagle (DME) Hams F12 (1:1) medium/10% fetal calf serum in the presence of irradiated 3T3 mouse fibroblasts for establishing dividing keratinocyte colonies. Cells were grown under the above condition until their second passage and kept frozen for future use. Frozen second passage keratinocytes were thawed and plated into the above medium and grown for five days before they were switched to a serum-free MCDB 153-based medium keratinocyte growth medium (KGM) from Clonetics Corporation, San Diego, CA, containing 0.15 mM Ca, or keratinocyte serum-free media (KSFM) from GIBCO containing 0.09 mM Ca). On day 7, when the cells were 80-90% confluent, they were trypsinized and plated in the serum-free medium for the various experiments.
During the process of terminal differentiation in the epidermis, a 15nm thick layer of protein, known as the cornified envelope (CE) is formed on the inner surface of the cell periphery. The CE is composed of numerous distinct proteins which have been cross-linked together by the formation of N^ε-(γ-glutamyl) lysine isodipeptide bonds catalyzed by the action of at least two different transglutaminases (TGases) expressed in the epidermis. Transglutaminase I (TGase I) is expressed in abundance in the differentiated layers of the epidermis, especially the granular layer, but is absent in the undifferentiated basal epidermis. Thus TGase I is a useful marker of epidermal keratinocyte differentiation with high TGase I levels indicating a more differentiated state. An ELISA based TGase I assay, using a TGase I antibody, was used to assess the state of differentiation of the cultured keratinocytes in the examples that follow.
Keratinocytes (cultured as described above) were plated in 96 well plates at a density of 3,000 cells per well in 200µl of cell culture media. After incubation for four days, the media was changed to media containing test compounds (six replicates per test). The cells were cultured for a further 72 hours after which time the media was aspirated and the plates stored at -70°C. After the plates were removed from the freezer, the cells were further freezed fractured by freezing and thawing and then washed 3x with PBS. The cells were incubated for one hour at room temperature (R/T) with TBS/5% BSA buffer. Cells were then incubated with 100µl of monoclonal anti-human transglutaminase (IgG) mouse antibody (primary antibody) obtained from Biomedical Technologies Inc. diluted 1:2000 in TBS/1% BSA buffer for two hours at 37°C, and then rinsed six times with wash buffer (TBS/1% BSA/0.05% Tween-20). Cells were next incubated with 100µl of Fab fragment, peroxidase conjugated anti-mouse IgG antibody (secondary antibody) from Amersham diluted 1:4,000 in wash buffer for two hours at 37°C and then rinsed three times with wash buffer and three times with PBS. Cells were incubated with substrate solution (4mg o-phenylene diamine and 3.3µl 30% H2O2 in 10mL 0.1M citrate buffer, pH 5.0) for five minutes at R/T and in darkness (under aluminum foil). The reaction was stopped by the addition of 50µl 4N H2SO4. The absorbance of samples was read at 492nm in the plate reader. Out of the six replicates, four were treated with both antibodies, two were treated only with the secondary antibody (i.e., to determine the background binding of the enzyme conjugated antibody). Transglutaminase I levels were determined by subtracted background from the readings from each treatment and determining the mean ± s.d. for the replicates exposed to both antibodies.
The level of TGase I detected after treatment of the cells could be influenced by cell number, i.e., the greater the number of cells the greater the level of TGase-1 detected. The level of Tgase I was normalized to DNA content of the cells in the same well thus eliminating variation due to differences in cell number. […]

[3] = test system: Human keratinocytes; test: Transglutaminase Assay (TGase I ELISA, Example 1 procedure), normalized to DNA; keratinocyte differentiation; format: cell-based; details: 2.5 x 10^-7M, 2.5 x 10^-8M and 2.5x10^-9M, vs ethanol control
Method: as §1, with “experiments. […]” for “experiments.”
Keratinocytes (cultured as described above) were plated in 96 well plates at a density of 3,000 cells per well in 200 µl media. […] The absorbance of samples was read at 492nm in the plate reader. […] TGase levels were determined by subtracting background from the readings from each treatment and determining mean ± s.d. for the replicates exposed to both antibodies.
The level of TGase I detected after treatment of the cells could be influenced by cell number, i.e., the greater the number of cells the greater the level of TGase-1 detected. […]

[4] = test system: Human keratinocytes; test: 3H-Thymidine incorporation, keratinocyte proliferation; format: cell-based; details: 250 nM
Method: as §1
The incorporation of ^3H-thymidine by cultured keratinocytes was used as an assay of keratinocyte proliferation. Thymidine is one of four deoxynucleosides which are the monomeric units of DNA, the universal library of genetic information in the animal kingdom. Prior to cell division of a somatic cell such as a keratinocyte, the complete genome of the cell undergoing cell division is replicated. This involves large scale DNA synthesis by the cell and enables both daughter cells to receive identical copies of the genetic material. When ^3H-thymidine is included in the culture media of keratinocytes which are synthesizing DNA in preparation for cell division then the labelled nucleoside is incorporated into the newly synthesized DNA. The extent of incorporation of ^3H-thymidine into a population of cells is proportional to the rate of DNA synthesis by this population of cells and therefore an indication of their cellular proliferation.
Keratinocytes (that were cultured as described above) were plated in 24 well plates at a density of 20,000 cells per well in 1 ml media. After incubation for four days or until the cells were 60-70% confluent, the media was changed. Test compounds were added (in triplicate) to the wells 24 hours after the media change, and four hours later 1µCi ^3H-Thymidine in 50 µl media was added per well. Cells were incubated for a further 24 hours. Media was removed from the cells, 10% ice cold trichloroacetic acid (TCA) added and plates were incubated on ice for 30 minutes. Cells were washed five times with 5% TCA and allowed to dissolve in 500 µl 0.1M NaOH for at least one hour (usually overnight). The preparations were neutralized with 0.1M HCl; 50 µl of the cell preparation was used to determine total protein content. Disintegrations per minute (DPM) from ^3H labelling of DNA was determined by liquid scintillation counting of 900µl of the cell preparation. Thymidine incorporation results were expressed as DPM/µg protein.

[5] = test system: acyl CoA retinol transferase (ARAT); test: In vitro Microsomal Assay, ARAT catalyzed retinol esterification (retinyl palmitate formation); format: biochemical, bovine
Method: as §2, §3

[6] = Table 2, 100 µM, read-out: % INHIB. LRAT
[7] = Table 10, 100 µM, read-out: % INHIBITION, LRAT
[8] = Table 5A, 100µM, read-out: % INHIBITION, LRAT

Structure (SMILES): CCCCCCCCCCCC1=NCCN1CCO [Lauryl, lauryl hydroxyethyl imidazoline]
- inhibition at 10 µM ([1]; Table 3, 10 micromolar, read-out: % INHIB. LRAT): 0%
- inhibition at 100 µM ([1]; Table 3, 100 micromolar, read-out: % INHIB. LRAT): 47%

Structure (SMILES): CCCCCCCCCCCCCCCC(=O)OC/C=C(C)/C=C/C=C(C)/C=C/C1=C(C)CCCC1(C)C [retinyl palmitate]
- activity at […] ([2]; Homo sapiens, Keratinocyte, Example 12, 2.5x10^-9M, read-out: keratinocyte TGase I level (% of control)): 93%
- TGase/ DNA (% control) ([2]; Table 12, 2.5x10^-8M): 93%
- mean TGase/ DNA x10^5 ± s.d ([2]; Table 12, 2.5x10^-8M): 47.32 ± 4.22

Structure (SMILES): CC1=C(/C=C/C(C)=C/C=C/C(C)=C/CO)C(C)(C)CCC1 [retinol]
- Transglutaminase levels normalized to DNA content of the cells [3]: decrease in transglutaminase level was dose dependent
- % Control ([2]; Table 7, experiment 1, 0.001 mM): 67%
- TGase/ DNA (% control) ([2]; Table 11, 2.5x10^-9M): 91%
- TGase/ DNA (% control) ([2]; Table 11, 2.5x10^-9M, listed as Retinol): 92%
- mean TGase/ DNA x10^5 ± s.d ([2]; Table 11, 2.5x10^-9M): 48.31 ± 5.31
- TGase/ DNA (% control) ([2]; Table 13, 2.5x10^-7M): 90%
- % Control ([4]; Table 9A, Experiment #1): 108%
- DPM/Microgram Protein mean ([4]; Table 9A, Experiment #1): 2082 DPM/Microgram Protein
- % Control ([4]; Table 9B, Experiment #2): 107%
- DPM/Microgram Protein mean ([4]; Table 9B, Experiment #2): 974 DPM/Microgram Protein

Structure (SMILES): CCCCCCCCC=CCCCCCCCC[N+](C)(C)[O-] [oleamine oxide]
- inhibition at 100 µM [1, 6]: 0%

Structure (SMILES): C/C=C/C(=O)C1C(C)=CCCC1(C)C (stereo not drawn) [alpha damascone]
- % INHIBITION, ARAT ([5]; Table 5A, 100µM): 83%
- % INHIBITION, ARAT ([5]; Table 5B, 10µM): 67%
- % Control ([2]; Table 7, experiment 1, 1 mM): 92%
- % Control ([2]; Table 7, experiment 2, 1 mM): 86%

Structure (SMILES): CCCCCCCC/C=C\CCCCCCCC1=NCCN1CCO [oleyl hydroxyethyl imidazoline]
- activity at 1 µM ([2]; Homo sapiens, Keratinocyte, Table 4, Exp 1): 80.7%
- activity at 1 µM ([2]; Homo sapiens, Keratinocyte, Table 4, Exp 2): 78.2%
- activity at 1 µM ([2]; Homo sapiens, Keratinocyte, Table 4, Exp 3): 91.1%

Structure (SMILES): O=C1C[C@@H](c2ccc(O)cc2)Oc2cc(O)cc(O)c21 [Naringenin, naringenin]
- % INHIBITION, ARAT ([5]; Table 10, 100 µM): 33%
- inhibition at 100 µM [1, 7]: 14%
- TGase/ DNA (% control) ([2]; Table 11, 10^-7M): 94%
- mean TGase/ DNA x10^5 ± s.d ([2]; Table 11, 10^-7M): 49.84 ± 2.76
- TGase/ DNA (% control) ([2]; Table 12, 10^-8M): 89%
- mean TGase/ DNA x10^5 ± s.d ([2]; Table 12, 10^-8M): 45.01 ± 1.90

Structure (SMILES): CCC(=O)/C=C/C1C(C)=CCCC1(C)C (stereo not drawn) [alpha methyl ionone]
- inhibition at 100 µM [1, 8]: 77%

Structure (SMILES): C/C=C/C(=O)C1CCC(C)(C)C=C1C (stereo not drawn) [isodamascone]
- % INHIBITION, ARAT ([5]; Table 5A, 100µM): 80%
- inhibition at 100 µM [1, 8]: 92%

Structure (SMILES): CCOC(=O)C1=C(C)C=CCC1(C)C [ethyl saffranate]
- inhibition at 100 µM [1, 8]: 49%

Structure (SMILES): CCCCCCCCCCCC(=O)N(C)CC(=O)O [lauroyl sarcosine]
- % INHIB. ARAT ([5]; Table 2, 100 µM): 20%
- inhibition at 100 µM [1, 6]: 0%

Structure (SMILES): O=c1c(O)c(-c2ccc(O)c(O)c2)oc2cc(O)cc(O)c12 [Quercetin, quercetin]
- % INHIBITION, ARAT ([5]; Table 10, 100 µM): 25%
- inhibition at 100 µM [1, 7]: 14%

Structure (SMILES): CC1=C(/C=C/C(C)=C/C=C/C(C)=C/C(=O)O)C(C)(C)CCC1 [retinoic acid]
- TGase/ DNA (% control) ([2]; Table 11, 2.5x10^-7M): 42%
- mean TGase/ DNA x10^5 ± s.d ([2]; Table 11, 2.5x10^-7M): 22.47 ± 2.31
- TGase/ DNA (% control) ([2]; Table 12, 2.5x10^-7M): 32%
- mean TGase/ DNA x10^5 ± s.d ([2]; Table 12, 2.5x10^-7M): 16.31 ± 2.58
- TGase/ DNA (% control) ([2]; Table 13, 2.5x10^-7M): 52%
- % Control ([4]; Table 9A, Experiment #1): 156%
- DPM/Microgram Protein mean ([4]; Table 9A, Experiment #1): 3013 DPM/Microgram Protein
- % Control ([4]; Table 9B, Experiment #2): 163%
- DPM/Microgram Protein mean ([4]; Table 9B, Experiment #2): 1494 DPM/Microgram Protein

Structure (SMILES): CC(=O)c1cc2c(cc1C)C(C)(C)C(C)C2C(C)C (stereo not drawn) [traseolide]
- % INHIBITION, ARAT ([5]; Table 5A, 100µM): 41%

Structure (SMILES): CCCCCCCCC=CCCCCCCCC(=O)NCCC[N+](C)(C)CC(=O)[O-] [oleamidopropyl betaine]
- inhibition at 100 µM [1, 6]: 0%
